Read-outs that look alike come from different tables or passages of the source.
Experiments:
CDK20 [1] = biological target: T1, CDK20 (Homo sapiens, UniProt Q8IZL9); assay: CDK20 human CMGC kinase binding assay (KINOMEscan); conditions: for Kd: CDK20 kinase binding assay, mean ± SD of three independent experiments; for fold improvement in binding affinity compared to ISM042-2-001: ratio of Kd values
T1 construct: purchased DiscoverX/Eurofins (KINOMEscan service); host or cells: HEK-293
Protocol: CDK20 human CMGC kinase binding assay
The assay was available as a product of the KINOMEscan service from DiscoverX/Eurofins. In brief, CDK20 proteins were produced in HEK-293 cells and subsequently tagged with DNA for qPCR detection. […] The liganded beads were blocked with excess biotin and washed with blocking buffer (SeaBlock (Pierce), 1% BSA, 0.05% Tween 20, and 1 mM DTT) to remove the unbound ligand and to reduce non-specific binding. […] Binding constants (Kds) were determined using an 11-point 3-fold compound dilution series with three DMSO control points. […] The compounds were then diluted directly into the assays such that the final concentration of DMSO was 0.9%. All reactions were performed in polypropylene 384-well plates. Each has a final volume of 0.02 ml. […] The kinase concentration in the eluates was measured by qPCR. Kds were calculated with a standard dose–response curve. The curves were fitted using a non-linear least squares fit with the Levenberg–Marquardt algorithm.

CDK20/CycT1 [2] = biological target: T2, CDK20/CycT1 (Homo sapiens, UniProt Q8IZL9); assay: CDK20 kinase activity assay (radiometric 33PanQinase); format: biochemical
T2 construct: purchased Reaction Biology Corp. (33PanQinase Activity Assay service)
T2 sequence (Q8IZL9 whole entry): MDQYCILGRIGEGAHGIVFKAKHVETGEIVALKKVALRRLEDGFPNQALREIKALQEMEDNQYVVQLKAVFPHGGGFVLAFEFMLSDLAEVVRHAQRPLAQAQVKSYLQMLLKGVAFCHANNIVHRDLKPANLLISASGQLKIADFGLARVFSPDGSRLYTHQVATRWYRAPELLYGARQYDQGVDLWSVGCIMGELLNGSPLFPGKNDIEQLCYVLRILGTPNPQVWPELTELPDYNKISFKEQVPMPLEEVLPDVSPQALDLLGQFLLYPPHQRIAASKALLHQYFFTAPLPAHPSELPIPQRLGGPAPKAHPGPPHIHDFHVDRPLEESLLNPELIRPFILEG
T2 sequence (O60563 whole entry partner): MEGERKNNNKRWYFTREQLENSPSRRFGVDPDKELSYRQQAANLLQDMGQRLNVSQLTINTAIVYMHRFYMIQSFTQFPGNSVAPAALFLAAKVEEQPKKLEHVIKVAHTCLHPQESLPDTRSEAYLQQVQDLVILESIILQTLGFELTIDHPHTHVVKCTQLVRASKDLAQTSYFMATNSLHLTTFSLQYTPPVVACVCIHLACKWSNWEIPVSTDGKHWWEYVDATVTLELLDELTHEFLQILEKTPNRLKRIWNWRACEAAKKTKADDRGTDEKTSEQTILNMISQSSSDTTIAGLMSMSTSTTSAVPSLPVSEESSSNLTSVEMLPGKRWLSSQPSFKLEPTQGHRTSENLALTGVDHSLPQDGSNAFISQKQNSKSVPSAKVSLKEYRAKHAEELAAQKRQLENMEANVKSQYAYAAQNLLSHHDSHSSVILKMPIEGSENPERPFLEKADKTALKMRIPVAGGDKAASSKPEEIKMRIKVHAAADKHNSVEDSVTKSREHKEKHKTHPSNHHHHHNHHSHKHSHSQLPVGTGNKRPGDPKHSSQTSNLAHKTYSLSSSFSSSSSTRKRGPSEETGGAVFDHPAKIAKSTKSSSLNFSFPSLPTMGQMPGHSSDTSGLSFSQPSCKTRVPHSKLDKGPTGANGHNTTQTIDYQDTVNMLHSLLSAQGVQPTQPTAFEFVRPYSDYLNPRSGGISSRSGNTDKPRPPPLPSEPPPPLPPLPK
Protocol: CDK20 kinase activity assay
A radiometric protein kinase assay ([33]PanQinase® ActivityAssay, available as a service product from Reaction Biology Corp.) was used for measuring the kinase activity of the CDK20 kinases. This assay was performed in 96-well FlashPlates™ from PerkinElmer (Boston, MA, USA) in a 50 μl reaction volume. The reaction cocktail was pipetted in four steps in the following order: (a) 25 μl of assay buffer (standard buffer/[γ-^33P]-ATP); (b) 10 μl of ATP solution (in H2O); (c) 5 μl of test compound (in 10% DMSO); (d) 10 μl of enzyme/substrate mixture. The assay for CDK20 kinase contained 70 mM HEPES-NaOH pH 7.5, 3 mM MgCl2, 3 mM MnCl2, 3 μM Na-orthovanadate, 1.2 mM DTT, 50 μg ml^−1 PEG20000, 1.0 μM ATP [γ-[33]P],-ATP (approx. 7 × 10^5 cpm per well), and 200 ng/50 μl kinase protein, and the substrate was 4.0 μg/50 μl. The compounds were dissolved to 1 × 10^−3 M in volumes of 100% DMSO. The 1 × 10^−3 M stock solutions were subjected to a serial, semi-logarithmic dilution using 100% DMSO as a solvent. The final volume of the assay was 50 μL All compounds were tested at 10 final assay concentrations in the range from 1 × 10^−5 M to 3 × 10^−10 M. The final DMSO concentration in the reaction cocktails was 1% in all cases. The “low control” was defined as the value that reflects unspecific binding of radioactivity to the plate in the absence of a protein kinase but in the presence of the substrate. The “high control” was defined as the full activity in the absence of any inhibitor. The difference between high and low controls was taken as 100% activity. As part of the data evaluation the low control value from a particular plate was subtracted from the high control value as well as from all 80 “compound values” of the corresponding plate.
The residual activities for each concentration and the compound’s IC50 values were calculated using Quattro Workflow V3.1.1 (Quattro Research GmbH, Munich, Germany; http://www.quattro-research.com/). […] The fitting method used was a least-squares fit.

CDK20/CycT1 [3] = biological target: T2, CDK20/CycT1; set-up: method as in doi:10.1158/1538-7445.AM2016-2821
CDK20 [4] = conditions: cited from earlier work
Huh7 = assay: Cell viability assay (Celltiter Glo), Huh7; format: cell-based; conditions: Homo sapiens, Huh-7, 72 h; HCC cell line with CDK20 overexpression; 3 days incubation; read-out: anti-proliferation IC50 in Huh7
Protocol: (§1) The Huh7 and HEK293 cells were maintained in DMEM with 10% FBS and 1% streptomycin and penicillin in 5% CO2. When the confluence of these two cell lines reached 80–90%, cells were harvested and resuspended, and the proper cells were added into a 384-well plate as below: Huh-7: 650 cells per well; HEK-293 : 300 cells per well. The final testing concentrations of the compounds were: 10 000, 3333, 1111, 370, 123, 41.2, 13.7, 4.57, 1.52, and 0.51 nM. The cells were incubated in a 37 °C, 5% CO2 incubator for 3 days, and then a reagent was added (Celltiter Glo assay kit) to the cells for testing and a Multiplate reader was used to record the chemiluminescence value. And GraphPad Prism 9 software was used to calculate IC50 and plot the effect–dose curve of compounds. The assays were conducted at Pharmaron Inc. in a fee-for-service mode.

HEK293 = assay: Cell viability assay (Celltiter Glo), counter screen HEK293; format: cell-based; conditions: Homo sapiens, HEK293, 72 h; counter screen cell line; 3 days incubation; read-out: anti-proliferation IC50 in HEK293
Protocol: as §1

[5] = CDK20 kinase activity assay, 1.0 μM ATP, values with SD from three independent experiments, read-out: CDK20/CycT1 IC50
[6] = read-out: CDK20/CycT1 IC50; poster of Mueller et al.; cited from earlier work

T1 sequence (Q8IZL9 whole entry): as the sequence (Q8IZL9 whole entry) above

Row | Kd (CDK20 [1]) [µM] | IC50 (CDK20/CycT1 [2]; [5]) [µM] | Compound | further results
1 | > 30 | – | c1cc(-n2cc(C3COC3)nn2)cc(NC2CC2)n1 [ISM042-2-009] | –
2 | > 30 | – | CCc1ccc(-c2cccc3nc(NC4CCCC4)[nH]c23)[nH]c1=O [ISM042-2-015] | –
3 | 17.7 ± 4.03 | 7.8 ± 0.125 | CN1CCN(CCNC(=O)c2cc(Nc3ncc4ccccc4n3)c[nH]2)CC1 [ISM042-2-053] | –
4 | – | – | CCc1cnn2c(NCc3ccc[n+]([O-])c3)cc(N3CCCC[C@H]3CCO)nc12 [Dinaciclib] | IC50 (CDK20/CycT1 [3]; [6]): 2.86 µM
5 | > 30 | – | c1cc(-c2nc3cnncc3s2)nc(N[C@H]2CCNC2)n1 [ISM042-2-025] | –
6 | 9.2 ± 0.5 | > 6 | CNC(=O)c1cc(Nc2ncc3ccccc3n2)c[nH]1 [ISM042-2-001] | –
7 | > 30 | – | Cn1cc(Oc2ccnc(NC3(C)CC3)c2)cn1 [ISM042-2-004] | –
8 | – | – | CC[C@H](CO)Nc1nc(NCc2ccccc2)c2ncn(C(C)C)c2n1 [Roscovitine] | IC50 (CDK20/CycT1 [3]; [6]): 8.68 µM
9 | – | – | CC(C)(CO)CNCc1ccc(Nc2ncc(SCc3ncc(C(C)(C)C)o3)s2)nc1 [BMS-357075] | Kd (CDK20 [4]; disclosed by Eurofins): 0.056 µM
10 | > 30 | – | Cc1ccnc(-n2cncc2N2CC3(COC3)C2)n1 [ISM042-2-019] | –
11 | – | – | O=C(Nc1ccc2cc(C(=O)Nc3nccs3)ccc2c1)c1ccc(Cl)c(Cl)c1 [AAPK-25] | Kd (CDK20 [4]): 8.02 µM
12 | 18.7 ± 6.34 | – | CN(C)CCNC(=O)c1cc(Nc2ncc3ccccc3n2)c[nH]1 [ISM042-2-052] | IC50 (CDK20/CycT1 [2]): > 6 µM
13 | 0.36 ± 0.0141 | 0.468 ± 0.006 | CNC(=O)c1cc(Nc2ncc3ccc(=O)n(C4CCCC4)c3n2)c[nH]1 [ISM042-2-049] | fold improvement in binding affinity compared to ISM042-2-001 (CDK20 [1]): 24 fold
14 | > 30 | – | NC(=O)c1cc(N2CCC(F)(F)CC2)nc(-c2cc[nH]n2)n1 [ISM042-2-007] | –
15 | – | – | CC(=O)c1c(C)c2cnc(Nc3ccc(N4CCNCC4)cn3)nc2n(C2CCCC2)c1=O [Palbociclib] | IC50 (CDK20/CycT1 [3]; poster of Mueller et al.; read-out: CDK20/CycT1 IC50; cited from earlier work): 1.26 µM
16 | 14.3 ± 1.7 | 4.08 ± 0.575 | CN1CCC(NC(=O)c2cc(Nc3ncc4ccccc4n3)c[nH]2)CC1 [ISM042-2-055] | –
17 | 0.567 ± 0.256 | 0.0334 ± 0.0226 | CNC(=O)c1cc(Nc2ncc3ccc(-c4cn[nH]c4)cc3n2)c[nH]1 [ISM042-2-048] | fold improvement in binding affinity compared to ISM042-2-001 (CDK20 [1]): 15 fold; IC50 (Huh7): 0.209 ± 0.0033 µM; IC50 (HEK293): 1.71 ± 0.67 µM
18 | 5.33 ± 1.19 | 7.1 ± 0.478 | CNC(=O)c1cccc(Nc2ncc3ccccc3n2)c1 [ISM042-2-050] | –
